Measurements published in patent US12239661B2, “Methods and compositions for treating undesired implanted tissue filler” (priority 2019, dated 2025).
Where “and” joins values, the source holds several entries; their conditions need not be identical. Equal entries are not always repeated. Where two headings read alike, the source gives them in different places. Marks after values point to notes of the source that are not given here.

Experiments:
[1] = SC injection of 1.5 mL into filler nodule
Description: (§1) A total of 7 CT-scans were performed at 1 h 15, 2 h, 4 h, 1 day (24 h), 3, 7 and 14 days after injection of the dermal filler. The clinical state of each animal is assessed once a week by body weight measurement and clinical observations.
On day 14, one pig received one SC injection of Radiesse® filler in order to represented a Day 0 injection which is considered a positive control and then, all pigs were euthanized and each nodule with a part of the skin, along with negative control skin (skin samples without injection), were sampled in order to perform histological analysis of, for example, the inflammation, the necrosis and the dermal filler presence at the injection site.

[2] = In vivo CT of filler nodule volume, density and 3D shape after test solutions 0-8 (Example 3)
Description: One hour after filler injections (T=1 h), 1.5 mL of selected solutions (Table 5, solutions 0-8, test items, solution 0 is normal saline and not hyperosmotic) were injected each into 9 dermal filler nodules in the right flank (ventral area).
as §1
The 10 SC injections of dermal filler on Day 0 were performed in the ventral area, (five nodules on each flank of the ventral area) for each pig. For each SC nodule, a theoretical volume of 500 μl was administered. One hour (±5 min) after injection of dermal filler, SC injection of the different solutions (prepared the day before) were performed into nine (9) nodules of dermal. For each SC nodule, a theoretical volume of 1.5 mL of test solution was administered.
The X-ray computed tomography acquisitions were performed with the Computed Tomography Scanner BrightSpeed 16 (General Electric). In order to measure the volume and the mean density and to visualize the 3D shape of the dermal filler (Radiesse® filler with or without test solution) injected, in vivo CT-scans were performed on Day 0: 1 h 15 (±10 min), 2 h (±15 min) and 4 h (±20 min), on Day 1 (24 h+1 h), Day 3, Day 7 and Day 14.
During CT acquisition on Day 0, the pigs received an IM injection of anesthesia. The animals were maintained under anesthesia until the CT acquisition at T=2 h (2 h after dermal filler injection session). Between these CT acquisitions, the animals were under surveillance in the recovery room on a heating mat with fluidotherapy. At the end of the CT acquisition at T=2 h, the pigs received a tattoo around each injected site. During the CT acquisitions at T=4 h and on Days 1, 3, 7 and 14, pigs received an IM injection of anesthesia. For the CT-scans, animals were positioned in dorsal recumbency and acquisitions were centered on the injection sites. The parameters of the CT-scan are described in Table 5.
The CT acquisition was analyzed with the software Avizo version 9.2.0. The objective of this analysis was to assess the degradation over time of the dermal filler injected by SC route after injection of different test solutions.
An image segmentation processing was performed on each CT acquisition. First, a manual pre-segmentation was performed around each nodule in order to roughly isolate the voxels corresponding to dermal filler product, which defined a Region of Interest (ROI). Second, an automatic segmentation was applied on the previously defined ROI using a global grey level thresholding procedure.
On day 0, a farm pig received ten (10) SC injections of Radiesse® dermal filler 0.5 mL (ventral area) (10 nodules in total). One hour after filler injections (T=1 h), 1.5 mL of one of eight test hyperosmotic solutions (1-8 solutions, Table 5) was injected at an injection site. One injection site was untreated and one injection site was treated with normal saline (0.9% wt/v NaCl).

[3] = X-ray CT of volume, mean density and 3D shape of Radiesse nodules and injected hyperosmotic solutions (Example 4); format: in vivo, Pig (Sus scrofa domesticus); details: for Change in Volume as percent of Injected Volume, Day 14/15: Example 4 (Day 15); for Change in Volume as percent of Injected Volume, Day 14/15 / Change in Volume as percent of Injected Volume, Day 0 + 1 h 15 / Change in Volume as percent of Injected Volume, Day 0 + 2 h / Change in Volume as percent of Injected Volume, Day 0 + 4 h / Change in Volume as percent of Injected Volume, Day 1 / Change in Volume as percent of Injected Volume, Day 3 / Change in Volume as percent of Injected Volume, Day 7: mean; for Change in Volume as percent of Injected Volume, Day 0 + 1 h 15 / Change in Volume as percent of Injected Volume, Day 0 + 2 h / Change in Volume as percent of Injected Volume, Day 0 + 4 h / Change in Volume as percent of Injected Volume, Day 1 / Change in Volume as percent of Injected Volume, Day 3 / Change in Volume as percent of Injected Volume, Day 7: Example 4
Description: Pigs are injected by SC route with Radiesse® filler without Lidocaine (Test item). One hour after the Radiesse® filler injection, selected different hyperosmotic solutions are injected by SC route into the dermal filler nodules. For two Radiesse® filler nodules per pig, no additional product is injected; these nodules are used as controls.
The evolution over time of the volume and mean density of the Radiesse® filler nodules with injection of the different solutions are assessed by CT-scanner at selected time points: on Day 0, at about 1 hour (h) and 15 minutes (min), 2 h and 4 h after the Radiesse® filler injection and solution injection, and then, on Day 1 (about 24 h after Radiesse® filler injection), Day 3, Day 7 and Day 15.
On Day 0, 4 pigs received ten (10) SC injections of Radiesse® dermal filler (P20WK-EE-01) of about 500 μl/nodule in the flank (ventral area) at T=0. One hour after Radiesse® dermal filler injections (T=1 h), about 1.5 ml of different hyperosmotic solutions (P20WK-EE-02 to P20WK-EE-05) were each injected into 8 Radiesse® filler nodules. Two Radiesse® filler nodules per animal were not injected with hyperosmotic solution and served as controls.
A total of 7 CT-scans were performed at 1 h 15±10 min, 2 h±15 min, 4 h±20 min, 1 day (24 h±1 h), 3, 7 and 15 days after injection of the dermal filler, as described in FIG. 9A.
On Day 0 (TO), 10 SC injections of test item P20WK-EE-01 (Radiesse® dermal filler) were performed in the ventral area (five nodules on each flank of the ventral area). For each SC nodule, a theoretical volume of 500 μL was administered. One hour (±5 min) after injection of dermal filler, SC injections of the different solutions (prepared on Day −3) were performed into 8 nodules of dermal filler. For each injection of solution, a theoretical volume of 1.5 mL was administered (see, e.g., injection scheme in Table 11).
In order to measure the volume, the mean density and to visualize the 3D shape of the dermal filler SC injected (in presence or absence of different hyperosmotic solutions), in vivo CT-scans were performed on Day 0: 1 h 15 (±10 min), 2 h (±15 min) and 4 h (±20 min), on Day 1 (24 h±1 h), Day 3, Day 7 and Day 15.
The CT acquisitions are analyzed with the software Avizo version 9.2.0. The objective of this analysis was to assess the dispersion over time of the Radiesse® dermal filler injected by SC route after injection of different hyperosmotic solutions.
To achieve this goal, the evolution of these parameters is observed over time: • the volume of each nodule (Radiesse® dermal filler and solution separately), • the mean density of each nodule (Radiesse® dermal filler and solution separately), • the 3D shape of each nodule by visualization of the 3D model of each nodule at each time point (Radiesse® dermal filler with or without solution separately). Segmentation:
An image segmentation is performed on each CT acquisition on the […] reconstruction. At first, a manual pre-segmentation is performed around each nodule in order to roughly isolate the voxels corresponding to Radiesse® dermal filler and hyperosmotic solutions and defined a Region of Interest (ROI). Secondly, an automatic segmentation is applied on the ROI previously defined using a global grey level thresholding procedure. […] Similarly, all the voxels having a grey level between these HU values are selected in a ROI and corresponds to the pure solution or solution containing some dispersed Radiesse® dermal filler (see, FIG. 10).
Then, a 3D model of these selected voxels (see, FIG. 11) is obtained allowing the calculation of the total volume (in mm^3) and the mean density (in HU) of the two defined compartments of each nodule of Pure Radiesse® dermal filler and of each solution containing or not containing dispersed Radiesse® dermal filler.
The volume (in mm^3) of the ROI of Radiesse® dermal filler and the solutions corresponding to each nodule and the mean density (in HU) of each nodule are calculated at each time point.

[4] = individual nodules, [+250, +∞] HU, listed as Radiesse + Fructose
[5] = mean of 8 nodules, [+250, +∞] HU

## [Ca+2].[Cl-].[Cl-] [sol 4, Calcium chloride]
[1]
  local tolerance at injection site: large wound on pigs
[1]; listed as CaCl2
  local tolerance at injection site: strong local irritating effect
[1]; listed as ClCl2
  local tolerance at injection site: severe skin necrosis
[2]; Day 14, CT 3D models
  nodule visibility / degradation of filler at end of study: largely degraded/dispersed the Radiesse® dermal filler
[2]; Example 3 (Day 14), mean
  Change in Volume as percent of Injected Volume, Day 14/15: 169.73* percent
[2]; Example 3, mean
  Change in Volume as percent of Injected Volume, Day 0 + 2 h: 162.46%
  Change in Volume as percent of Injected Volume, Day 0 + 4 h: 157.72%
  Change in Volume as percent of Injected Volume, Day 1: 145.42* percent
  Change in Volume as percent of Injected Volume, Day 3: 174.24* percent
  Change in Volume as percent of Injected Volume, Day 7: 175.91* percent
[2]; Example 3, mean, 1.5 mL solution into 500 μl nodule
  Change in Volume as percent of Injected Volume, Day 0 + 1 h 15: 170.60* percent

## O=C(CO)[C@@H](O)[C@H](O)[C@H](O)CO [sol 11, Fructose]
[3]
  Change in Volume as percent of Injected Volume, Day 14/15: 1930%
  Change in Volume as percent of Injected Volume, Day 0 + 1 h 15: 1581* percent
  Change in Volume as percent of Injected Volume, Day 0 + 2 h: 1610%
  Change in Volume as percent of Injected Volume, Day 0 + 4 h: 1871%
  Change in Volume as percent of Injected Volume, Day 1: 2285%
  Change in Volume as percent of Injected Volume, Day 3: 1959%
  Change in Volume as percent of Injected Volume, Day 7: 2002%
[3]; between −100 HU and 250 HU
  average of the mean density of solution nodules, T=1 h 15: 58.6±6.2 HU
  average of the mean density of solution nodules, T=4 h: −1.0±7.7 HU
  mean volume of solution with potential dispersed Radiesse, Day 15: 883.9±269.9 mm^3
  mean volume of solution with potential dispersed Radiesse, T+4 h: 7000.8±1389.9 mm^3
  variation of solution volume on Day 15 compared to the injected volume on T=1 h: −42.8%
  variation of the average of the mean density of solutions, Day 15 compared to T=1 h 15: 34.7%
[3]; [4]
  Nodule volume, Day 0 + 1 h 15: 799.1 mm^3 and 845.1 mm^3 and 739.4 mm^3 and 852.5 mm^3 and 760.4 mm^3 and 837.5 mm^3 and 793.0 mm^3 and 710.6 mm^3
  Nodule volume, Day 0 + 2 h: 795.9 mm^3 and 856.3 mm^3 and 750.5 mm^3 and 863.0 mm^3 and 770.1 mm^3 and 898.7 mm^3 and 808.3 mm^3 and 712.1 mm^3
  Nodule volume, Day 0 + 4 h: 1039.3 mm^3 and 957.8 mm^3 and 861.1 mm^3 and 985.4 mm^3 and 902.9 mm^3 and 1039.4 mm^3 and 912.1 mm^3 and 796.2 mm^3
  Nodule volume, Day 1: 1168.5 mm^3 and 1120.2 mm^3 and 1122.3 mm^3 and 1226.3 mm^3 and 1085.5 mm^3 and 1165.0 mm^3 and 1153.8 mm^3 and 1115.5 mm^3
  Nodule volume, Day 3: 1043.6 mm^3 and 1039.7 mm^3 and 961.0 mm^3 and 1053.3 mm^3 and 969.6 mm^3 and 992.2 mm^3 and 891.2 mm^3 and 897.7 mm^3
  Nodule volume, Day 7: 1041.9 mm^3 and 1040.7 mm^3 and 1239.0 mm^3 and 1200.9 mm^3 and 879.3 mm^3 and 953.1 mm^3 and 833.5 mm^3 and 838.3 mm^3
  Nodule volume, Day 15: 997.7 mm^3 (2×) and 997.2 mm^3 and 944.9 mm^3 and 1054.8 mm^3 and 923.5 mm^3 and 912.9 mm^3 and 905.4 mm^3
[3]; [5]
  Mean nodule volume, Day 0 + 1 h 15: 792.2 mm^3
  Mean nodule volume, Day 0 + 2 h: 806.9 mm^3
  Mean nodule volume, Day 0 + 4 h: 936.8 mm^3
  Mean nodule volume, Day 1: 1144.6 mm^3
  Mean nodule volume, Day 3: 981.0 mm^3
  Mean nodule volume, Day 7: 1003.3 mm^3
  Mean nodule volume, Day 15: 966.8±52.9 mm^3
[3]; mean of 8 nodules, [+250, +∞] HU, listed as Radiesse + Fructose
  Mean nodule volume, Day 15: 966.8 mm^3
[3]; pure Radiesse >250 HU
  average of the mean density of nodules, Day 1: 424.6±31.6 HU
  average of the mean density of nodules, Day 3: 505.0±72.2 HU
  average of the mean density of nodules, Day 15: 512.9±57.4 HU

## O=C([O-])O.[Na+] [sol 14, Sodium hydrogen carbonate (sodium bicarbonate)]
[3]
  Change in Volume as percent of Injected Volume, Day 14/15: 1977%
  Change in Volume as percent of Injected Volume, Day 0 + 1 h 15: 1529* percent
  Change in Volume as percent of Injected Volume, Day 0 + 2 h: 1561%
  Change in Volume as percent of Injected Volume, Day 0 + 4 h: 1799%
  Change in Volume as percent of Injected Volume, Day 1: 2214%
  Change in Volume as percent of Injected Volume, Day 3: 2014%
  Change in Volume as percent of Injected Volume, Day 7: 2345%
[3]; between −100 HU and 250 HU
  average of the mean density of solution nodules, T=1 h 15: 25.7±5.5 HU
  average of the mean density of solution nodules, T=2 h: 14.1±7.1 HU
  mean volume of solution with potential dispersed Radiesse, Day 15: 1352.3±570.6 mm^3
  mean volume of solution with potential dispersed Radiesse, T=2 h: 2577.4±54.0 mm^3
  variation of solution volume on Day 15 compared to the injected volume on T=1 h: −1.4%
[3]; pure Radiesse >250 HU
  average of the mean density of nodules, Day 15: 441.3±62.9 HU
